US20210186947A1, “TOMM6-INTERACTING EXTRACTS AND COMPOUNDS FOR USE IN THE TREATMENT AND PROPHYLAXIS OF NERVOUS SYSTEM DISEASES, ATHEROSCLEROSIS, HEPATITIS B INFECTION AND HUMAN PAPILLOMA VIRUS (HPV) INFECTION” (ETH ZURICH, priority 2018, published 2021)

Key:
[1] = test system: hyperphosphorylated PHF-Tau; assay: Hippocampal hyperphosphorylated PHF-Tau in Tg2576 mice subjected to CUMS, binding assay with [125I]-labeled AT8 antibody; assay type: in vivo; settings: 15 months-old Tg2576 mice, 3 months of CUMS, treated during CUMS; compounds 10 mg/kg/d
[2] = biological target: T1, Tomm6 (Mitochondrial import receptor subunit TOMM6 homolog) (Mus musculus, UniProt Q9CQN3); assay: Identification of Compound-1-interacting hippocampal proteins by co-migration in SDS-PAGE and nano-LC-ESI-MS/MS; assay type: binding, Tg2576 mice; settings: solubilisate of hippocampal proteins supplemented with 10 microM Compound-1
T1 construct: hippocampi were isolated from 5-10 aged Tg2576 mice, pulverized under liquid nitrogen and solubilized; from tissue; host or cells: hippocampus of Tg2576 mice
T1 sequence (Q9CQN3 whole entry): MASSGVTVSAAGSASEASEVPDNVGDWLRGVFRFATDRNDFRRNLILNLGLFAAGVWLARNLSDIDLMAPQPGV
Description: To isolate Compound-1-interacting hippocampal proteins, hippocampi were isolated from 5-10 aged Tg2576 mice, pulverized under liquid nitrogen and solubilized for 30 min at 4° C. in solubilization buffer (1% sodium deoxycholate, 0.05% SDS, 0.05% Tween 20 in PBS, pH 7.4, supplemented with protease inhibitors). Insoluble material was removed by centrifugation. The supernatant was diluted 1:5 in PBS (supplemented with protease inhibitors). To this solubilisate, Compound-1 was added at a concentration of 10 μM. Buffer exchange into 20 mM Tris pH 7.4 was performed by centrifugation over Amicon Ultra Centrifugal Filter Units (MWCO 3 kDa; EMD Millipore Merck KGaA, Darmstadt, Germany). The concentrated proteins were dissolved in Laemmli sample buffer (Bio-Rad GmbH, Munchen, Germany) supplemented with mercaptoethanol (355 mM) and subjected to 8% SDS-PAGE under reducing conditions. Compound-1-interacting proteins were identified by co-migration, protein bands were cut and subjected to nano-LC-ES-MS/MS (performed by Proteome Factory AG, Berlin, Germany). Proteins were identified using MS/MS ion search of the Mascot search engine (Matrix Science, London, England) and nr protein database (National Center for Biotechnology Information, Bethesda, MD). […]

[3] = Sub-chronic oral toxicity in rats; assay type: in vivo, Sprague Dawley rats
Description: Sub-chronic toxicity studies in dogs (German Shepherd dogs) and rats (Sprague Dawley rats) were performed by the Center of Applied Analytical and Veterinary Studies, Cairo, Egypt.
The oral toxicity of alizarin (Compound-1) in rats was determined in a sub-chronic toxicity study. Rats were treated for 3 months with a once daily oral dose of alizarin of 25 mg/kg/day, 50 mg/kg/day and 100 mg/kg/day. […] The good tolerability of alizarin in rats and dogs is supported by previous observations in humans, which document that long-term treatment for several years with alizarin and alizarin-containing plant extracts is not toxic and was previously used to prevent recurrence of calcium-containing urinary stones (Lorenz et al., Methods Find. Exp. Clin. Pharmacol. 7, 637-643, 1985). Taken together, alizarin has good oral bioavailability and a wide therapeutic window.
Pharmacokinetic data of Compound-7 were determined as another representative TOMM6/Tomm6 inducer with a different chemical structure than alizarin (Compound-1). […] The oral bioavailability of Compound-7 in dogs was much higher than in rats because oral doses of Compound-7 required to achieve equivalent peak serum concentrations were approximately 10-fold higher in rats compared to dogs (FIG. 20B). Again, this observation is in agreement with the equivalent surface area dosage rule, according to which rats and mice usually require a 10-12-fold higher dose than dogs and humans. […] This second peak could reflect enterohepatic recirculation of Compound-7.

mammalian cells = mammalian cells and in vivo; cited from earlier work

In the case of `O=C1c2ccccc2C(=O)c2c1ccc(O)c2O` [Compound-1, 1,2-dihydroxyanthraquinone], the “hippocampal content of hyperphosphorylated PHF-Tau” value [1] is reported as “significantly decreased hippocampal content of hyperphosphorylated PHF-Tau”, the “interaction with Tomm6 (co-migration)” value [2] is reported as “major Compound-1-interacting protein” and the “histopathology of heart, liver, kidney” value ([3]; rats, 3 months, once daily oral 100 mg/kg) is reported as “did not show any detectable alterations”. For the same compound, the “adverse effects on body, liver, heart and kidney weight, serum calcium, creatinine, BUN, ALT, AST” value ([3]; rats, 3 months, once daily oral 25, 50 and 100 mg/kg/day) was “did not find any significant adverse effects”, the “difference between therapeutic and toxic doses (therapeutic index)” value ([3]; therapeutic dose 10 mg/kg once daily in rodent models) was “more than 10 fold” and the tumor promotion (mammalian cells) was “not a tumor promotor”.
